Several values for one entry are separate records, joined by “and”; a condition that tells them apart may be missing. Equal entries are not always repeated.
Columns and labels:
PC-9 cells [1] = test: Hoechst 33342 staining for cell apoptosis; format: cell-based, human; conditions: PC-9, various concentrations, 48 h, vs 0.1% DMSO
Experimental: To further verify the impact of compounds e4 and e12 on apoptosis of NSCLC cells, PC-9 cells were treated with either compound e4 or e12 at various concentrations for 48 h and then stained with dye Hoechst 33342.
PC-9 cells were seeded in 96-well plates, then treated with 0.1% DMSO (as control) or various concentrations of compound e4 or e12 for 48 h. Culture medium from the cells was removed and replaced with medium containing dye Hoechst 33342. Cells were incubated at 37°C for 5–15 min, washed with PBS twice, and then observed and imaged under the Nikon Ti-U microscope.

[2] = test system: CCND1, CCNA2, CCNB1, CDK2, CDK6 RNA in PC-9 cells; test: qPCR assay for cell cycle-related gene analysis; format: cell-based, human; conditions: for CCNB relative mRNA expression (2^-ddCt vs NC, normalised to beta-Actin) / CCND1 relative mRNA expression (2^-ddCt vs NC, normalised to beta-Actin) / CDK6 relative mRNA expression (2^-ddCt vs NC, normalised to beta-Actin): qPCR SYBR_GREEN, NC = 1; for RQ / RQ, CCNA / RQ, CCNB / RQ, CCND1 / RQ, CDK6 / RQ (CDK2): endogenous control b-Actin, reference sample NC; for CDK6 relative mRNA expression (fold of NC): normalised to beta-Actin, relative to NC = 1
Description: To better understand the mechanisms underlying cell cycle arrest induced by e4 and e12 in NSCLC cells, we assessed the expression levels of a few genes involved in cell cycle regulation, including cyclin D1 (CCND1), cyclin A2 (CCNA2), cyclin B1 (CCNB1), cyclin-dependent kinase 2 (CDK2), and cyclin-dependent kinase 6 (CDK6) in PC-9 by qPCR. […] CCNA2 is known to bind and activate CDK2 and thus promotes the transition through G1/S and G2/M. CCNB1 and CCND1 are essential to mitosis and G1/S transition respectively. While G2/M arrest weas not detected, the changes in these gene expression profiles interpret the G1/S arrests in PC-9 cells treated with e4 and e12. PC-9 cells exposed to the compounds for various periods should be examined further.
Total RNA of cells was extracted and cDNA was synthesized. The primers for the target products were designed as in Table 3.

[3] = test system: AKT phosphorylation (S473) in H460 cells; test: Western blot, p-AKT/AKT in H460; conditions: for p-AKT/AKT: band density ratio; for p-AKT/AKT relative to DMSO: ratio normalised to DMSO
Experimental: We also performed western blot analysis to evaluate the impact of e4 and e12 on EGFR signaling in PC-9 and H460 cells.
H460 cells were seeded in six-well plates with serum-free medium overnight, and then treated complete medium containing 0.1% DMSO, various concentrations (0.1, 1 and 10 μM) of either compound e4 or e12 for 2 h, respectively. […] Then the H460 cells were treated with complete medium containing EGF (10 ng/ml) for 5 min. Then the cells were harvested and washed with PBS, centrifuged, resuspended in 100–200 μl of RIPA lysis buffer containing Protease and Phosphatase Inhibitor Cocktail (1X), and then centrifuged for 5 min at 12,000 rpm at 4°C. The supernatant was used for protein analysis. […] Then the membrane was washed 5 min (X3) and incubated at 1:3,000 dilution of anti-rabbit secondary antibodies or 1:1,000 dilution of anti-mouse secondary antibodies for 1 h at RT. After washing with TBST 5 min (X3), protein bands were developed by chemiluminescence. The protein levels were quantified by the gray values of the bands in the resulting images by ImageJ, and the control group was used as the standard. […] The PC-9 cells were harvested and analyzed as above.

PC-9 cells [4] = test: CCK-8 antiproliferation assay, PC-9; conditions: for Inhibitory efficacy: single repeats (Repeat 1-3), given as fraction
H1975 cells = test: CCK-8 antiproliferation assay, H1975; conditions: given as fraction, Repeat 1-3; for Inhibitory efficacy: H1975 cells
Experimental: The compounds were dissolved in DMSO to make a 20 μM stock solution and diluted to the concentration of working solutions with complete growth medium before administration.
Cells were seeded in 96-well plates: 3,000–5,000 cells/well in 100 ul. One day after seeding, the test compounds at concentration between 1.0 and 16.0 μ M or 0.1% DMSO (as control) were added to cells in triplicate. 48 h later, CCK-8 was added and incubated the plate for 1–4 h in the incubator. The absorbance at 450 nm were measured using a microplate reader (Bio-Tek).

[5] = 4uM, Repeat 1-3, relative to NC = 1
[6] = 8uM, Repeat 1-3, relative to NC = 1
[7] = 12uM, Repeat 1-3, relative to NC = 1
[8] = PC-9, 16 h, compared with DMSO control

For `COCCOc1cc2ncnc(Nc3cccc(-c4cn(Cc5cc(Br)cc(Br)c5)nn4)c3)c2cc1OCCOC` [e4, [6,7-Bis-(2-methoxy-ethoxy)-quinazolin-4-yl]-{3-[1-(3,5-dibromo-benzyl)-1H-[1,2,3]triazol-4-yl]-phenyl}-amine], the “apoptotic morphology, Hoechst 33342 staining” value (PC-9 cells [1]) was “exhibited features typical of apoptosis”, the “CCNB relative mRNA expression (2^-ddCt vs NC, normalised to beta-Actin)” value ([2]; 4uM) was 0.8081 and the “CCNB relative mRNA expression (2^-ddCt vs NC, normalised to beta-Actin)” value ([2]; 8uM) was 0.7848. The “CCND1 relative mRNA expression (2^-ddCt vs NC, normalised to beta-Actin)” value ([2]; 8uM) was 0.7172, the “CDK6 relative mRNA expression (2^-ddCt vs NC, normalised to beta-Actin)” value ([2]; 8uM) was 0.824 and the “CCNB relative mRNA expression (2^-ddCt vs NC, normalised to beta-Actin)” value ([2]; 12uM) was 0.736. The “CCND1 relative mRNA expression (2^-ddCt vs NC, normalised to beta-Actin)” value ([2]; 12uM) was 0.6074, the “CDK6 relative mRNA expression (2^-ddCt vs NC, normalised to beta-Actin)” value ([2]; 12uM) was 1.051 and the RQ ([2]; CCNA mRNA, 4uM) was 0.764. The RQ ([2]; CCNA mRNA, 8uM) was 0.7042, the RQ ([2]; CCNA mRNA, 12uM) was 0.7817 and the “2^ΔΔCт CCNA” value [2, 5] was 0.7613 and 0.8165 and 0.764. For the same compound, the “2^ΔΔCт CCNA” value [2, 6] was 0.7109 and 0.778 and 0.7042, the “2^ΔΔCт CCNA” value [2, 7] was 0.5857 and 0.5446 and 0.7817 and the RQ ([2]; CCNB mRNA, 4uM) was 0.9138. For the same compound, the RQ ([2]; CCNB mRNA, 8uM) was 0.7783, the RQ ([2]; CCNB mRNA, 12uM) was 1.003 and the “2^ΔΔCт CCNB” value [2, 5] was 0.8081 and 0.8617 and 0.9138. For the same compound, the “2^ΔΔCт CCNB” value [2, 6] was 0.7848 and 0.9105 and 0.7783, the “2^ΔΔCт CCNB” value [2, 7] was 0.736 and 0.7897 and 1.003 and the “2^ΔΔCт CCND1” value ([2]; CCND1, 4uM, Repeat 1-3, relative to NC = 1) was 0.8337 and 1.076 and 0.8297. For the same compound, the “2^ΔΔCт CCND1” value ([2]; CCND1, 8uM, Repeat 1-3, relative to NC = 1) was 0.7172 and 1.068 and 0.8923, the “2^ΔΔCт CCND1” value ([2]; CCND1, 12uM, Repeat 1-3, relative to NC = 1) was 0.6074 and 0.7441 and 0.7112 and the “2^ΔΔCт” value ([2]; CCND1, 12uM, normalized to WT (NC), run 20201020-2) was 0.7112. The RQ ([2]; CCND1 mRNA, 4uM) was 0.8297, the RQ ([2]; CCND1 mRNA, 8uM) was 0.8923 and the RQ ([2]; CCND1 mRNA, 12uM) was 0.7112. For the same compound, the “2^ΔΔCт CDK2” value ([2]; CDK2, 4uM, Repeat 1-3, relative to NC = 1) was 1.17 and 1.2056 and 1.028, the “2^ΔΔCт CDK2” value ([2]; CDK2, 8uM, Repeat 1-3, relative to NC = 1) was 1.1688 and 1.551 and 1.159 and the “2^ΔΔCт CDK2” value ([2]; CDK2, 12uM, Repeat 1-3, relative to NC = 1) was 0.9257 and 1.095 and 1.173. The RQ ([2]; CDK2 mRNA, 4uM) was 1.028, the RQ ([2]; CDK2 mRNA, 8uM) was 1.159 and the RQ ([2]; CDK2 mRNA, 12uM) was 1.173. For the same compound, the “2^ΔΔCт CDK6” value ([2]; CDK6, 4uM, Repeat 1-3, relative to NC = 1) was 0.8111 and 1.387 and 0.8685, the “2^ΔΔCт CDK6” value ([2]; CDK6, 12uM, Repeat 1-3, relative to NC = 1) was 1.051 and 1.348 and 1.109 and the RQ ([2]; CDK6 mRNA, 4uM) was 0.8685. For the same compound, the RQ ([2]; CDK6 mRNA, 8uM) was 0.637, the RQ ([2]; CDK6 mRNA, 12uM) was 1.109 and the “RNA expression of CCND1” value ([2]; PC-9, 12 μM, 16 h) was “negatively regulated”. For the same compound, the “RNA level of CCNA2” value [2, 8] was “significantly decreased”, the “RNA level of CCNB1” value [2, 8] was “significantly decreased” and the “RQ, CCNA” value ([2]; qPCR SYBR Green, CCNA mRNA, 4uM) was 0.8165. The “RQ, CCNA” value ([2]; qPCR SYBR Green, CCNA mRNA, 8uM) was 0.778, the “RQ, CCNA” value ([2]; qPCR SYBR Green, CCNA mRNA, 12uM) was 0.5446 and the “RQ, CCNB” value ([2]; qPCR SYBR Green, CCNB mRNA, 4uM) was 1.076. For the same compound, the “RQ, CCNB” value ([2]; qPCR SYBR Green, CCNB mRNA, 8uM) was 1.137, the “RQ, CCNB” value ([2]; qPCR SYBR Green, CCNB mRNA, 12uM) was 0.9859 and the “RQ, CCND1” value ([2]; qPCR SYBR Green, CCND1 mRNA, 4uM) was 1.076. For the same compound, the “RQ, CCND1” value ([2]; qPCR SYBR Green, CCND1 mRNA, 8uM) was 0.7718, the “RQ, CCND1” value ([2]; qPCR SYBR Green, CCND1 mRNA, 12uM) was 0.7441 and the “RQ, CDK6” value ([2]; qPCR SYBR Green, CDK6 mRNA, 4uM) was 1.387. For the same compound, the “RQ, CDK6” value ([2]; qPCR SYBR Green, CDK6 mRNA, 8uM) was 1.7457, the “RQ, CDK6” value ([2]; qPCR SYBR Green, CDK6 mRNA, 12uM) was 1.348 and the “CDK6 relative mRNA expression (fold of NC, normalised to beta-Actin)” value ([2]; qPCR, SYBR Green, 8uM) was 1.746. For the same compound, the “CDK6 relative mRNA expression (fold of NC)” value ([2]; qPCR, SYBR Green, 8uM) was 0.9943, the “CDK6 relative mRNA expression (fold of NC)” value ([2]; qPCR, SYBR Green, 12uM) was 1.109 and the “2^ΔΔCт CDK6” value ([2]; recalculated summary 20201020-1, normalized to WT (NC), CDK6, 4uM) was 1.387. For the same compound, the “2^ΔΔCт CDK6” value ([2]; recalculated summary 20201020-1, normalized to WT (NC), CDK6, 8uM) was 1.746, the “RQ, CCNA” value ([2]; target CCNA, 4uM) was 0.7613 and the “RQ, CCNA” value ([2]; target CCNA, 8uM) was 0.7109. The “RQ, CCNA” value ([2]; target CCNA, 12uM) was 0.5857, the “RQ, CCNB” value ([2]; target CCNB, 4uM) was 0.8081 and the “RQ, CCNB” value ([2]; target CCNB, 8uM) was 0.7848. The “RQ, CCNB” value ([2]; target CCNB, 12uM) was 0.736, the “RQ, CCND1” value ([2]; target CCND1, 4uM) was 0.8337 and the “RQ, CCND1” value ([2]; target CCND1, 8uM) was 0.7172. For the same compound, the “RQ, CCND1” value ([2]; target CCND1, 12uM) was 0.6074, the “RQ (CDK2)” value ([2]; target CDK2, 8uM) was 1.1688 and the “RQ (CDK2)” value ([2]; target CDK2, 12uM) was 0.9257. The “RQ, CDK6” value ([2]; target CDK6, 4uM) was 0.8111, the “RQ, CDK6” value ([2]; target CDK6, 8uM) was 0.824 and the “RQ, CDK6” value ([2]; target CDK6, 12uM) was 1.051. The p-AKT/AKT ([3]; H460, 0.1 uM) was 1.245, the “p-AKT/AKT relative to DMSO” value ([3]; H460, 0.1 uM) was 1.252 and the p-AKT/AKT ([3]; H460, 1 uM) was 0.733. For the same compound, the “p-AKT/AKT relative to DMSO” value ([3]; H460, 1 uM) was 0.7369, the p-AKT/AKT ([3]; H460, 10 uM) was 1.039 and the “p-AKT/AKT relative to DMSO” value ([3]; H460, 10 uM) was 1.044. For the same compound, the “phosphorylation of AKT (western blot)” value ([3]; H460, especially at 10 μM) was “suppressed”, the IC50 (PC-9 cells [4]; Homo sapiens, PC-9, 48 h, read-out: IC50 (μM) PC-9) was 4.38 ± 0.12 µM and the inhibition at 1 µM (PC-9 cells [4]; Homo sapiens, PC-9, read-out: Inhibitory efficacy, PC-9, 1uM, single repeats (Repeat 1-3), given as fraction) was 4.24%. The inhibition at 2 µM (PC-9 cells [4]; Homo sapiens, PC-9, read-out: Inhibitory efficacy, PC-9, 2uM, single repeats (Repeat 1-3), given as fraction) was 12.8%, the inhibition at 4 µM (PC-9 cells [4]; Homo sapiens, PC-9, read-out: Inhibitory efficacy, PC-9, 4uM, single repeats (Repeat 1-3), given as fraction) was 40% and the inhibition at 8 µM (PC-9 cells [4]; Homo sapiens, PC-9, read-out: Inhibitory efficacy, PC-9, 8uM, single repeats (Repeat 1-3), given as fraction) was 88.1%. The inhibition at 16 µM (PC-9 cells [4]; Homo sapiens, PC-9, read-out: Inhibitory efficacy, PC-9, 16uM, single repeats (Repeat 1-3), given as fraction) was 85.7%, the Inhibitory efficacy (PC-9 cells [4]; PC-9, 1uM, 1 µM) was 0.05688 and 0.04243 and the Inhibitory efficacy (PC-9 cells [4]; PC-9, 2uM, 2 µM) was 0.1851 and 0.2067. For the same compound, the Inhibitory efficacy (PC-9 cells [4]; PC-9, 4uM, 4 µM) was 0.4288 and 0.3873, the Inhibitory efficacy (PC-9 cells [4]; PC-9, 8uM, 8 µM) was 0.8667 and 0.8549 and the Inhibitory efficacy (PC-9 cells [4]; PC-9, 16uM, 16 µM) was 0.8604 and 0.8477. The Inhibitory efficacy (H1975 cells; 2uM) was 0.363 and 0.4168, the Inhibitory efficacy (H1975 cells; 4uM) was 0.3676 and 0.4565 and the Inhibitory efficacy (H1975 cells; 8uM) was 0.9443. The Inhibitory efficacy (H1975 cells; 16uM) was 0.9548 and 0.9653, the inhibition at 2 µM (H1975 cells; Homo sapiens, NCI-H1975, read-out: Inhibitory efficacy, H1975 cells, 2uM) was 30.2% and the inhibition at 4 µM (H1975 cells; Homo sapiens, NCI-H1975, read-out: Inhibitory efficacy, H1975 cells, 4uM) was 39.3%. The inhibition at 8 µM (H1975 cells; Homo sapiens, NCI-H1975, read-out: Inhibitory efficacy, H1975 cells, 8uM) was 92.2% and the inhibition at 16 µM (H1975 cells; Homo sapiens, NCI-H1975, read-out: Inhibitory efficacy, H1975 cells, 16uM) was 96.1%.

Reference: article PMC8776995 (Frontiers in Chemistry, 2022)
